Reference: US20130324617A1, “CROWN-LIKE STRUCTURES AS A BIOMARKER FOR CANCER RISK AND CANCER PROGNOSIS” (MEMORIAL SLOAN-KETTERING CANCER CENTER, priority 2011, published 2013)

How the values were obtained:
[1] = tested on: aromatase in human preadipocytes; test: Induction of aromatase mRNA and activity in preadipocytes by macrophage-derived conditioned medium; format: cell-based; details: for aromatase mRNA and activity in human preadipocytes: preadipocytes treated 24 hours
Protocol: Human visceral preadipocytes (ScienCell™) were grown in preadipocyte medium containing 10% FBS.
(§1) THP-1 cells (ATCC) were maintained in RPMI-1640 medium (Invitrogen) supplemented with 10% FBS. These cells were treated with phorbol 12-myristate 13-acetate (10 ng/mL) overnight to differentiate them into macrophages. Human monocytes (Astarte Biologics) were activated with IFNγ (15 ng/mL) and lipopolysaccharide (15 ng/mL) in RPMI-1640 medium for 4 days. THP-1 cells and blood monocyte-derived macrophages were then treated with saturated fatty acids (Nu-CheK Prep) as indicated. To prepare conditioned medium (CM), the cells were treated with saturated fatty acids for 12 hours in medium comprised of RPMI-1640 and preadipocyte medium (ScienCellTMResearch Laboratories) at a 1:1 ratio. Following treatment with fatty acids, the medium was removed and cells were washed thrice with PBS to remove fatty acids. Subsequently, fresh medium was added for 24 hours. This CM was then collected and centrifuged at 4,000 rpm for 30 minutes to remove cell debris. CM was used to treat preadipocytes.
(§2) Total RNA was isolated using the RNeasy mini kit (Qiagen). For tissue analyses, poly A RNA was prepared with an Oligotex mRNA mini kit (Qiagen). Poly A RNA was reversed transcribed using murine leukemia virus reverse transcriptase and oligo (dT)16 primer. The resulting cDNA was then used for amplification using primers listed Table 1. GAPDH and β-actin were used as endogenous normalization controls for tissue and cell culture analyses, respectively. Real-time PCR was performed using 2×SYBR green PCR master mix on a 7500 Real-time PCR system (Applied Biosystems). Relative fold induction was determined using the ddCT (relative quantification) analysis protocol.
To determine aromatase activity, microsomes were prepared from cell lysates and tissues by differential centrifugation using established methods (Subbaramaiah 2006). Aromatase activity was quantified by measurement of the tritiated water released from 1β-[^3H]-androstenedione (Subbaramaiah 2008). The reaction was also performed in the presence of letrozole, a specific aromatase inhibitor, as a specificity control and without NADPH as a background control. Aromatase activity was normalized to protein concentration.
Further, to investigate whether conditioned medium from saturated fatty acid-treated macrophages induced aromatase in preadipocytes, THP-1 cells or human blood monocyte-derived macrophages were treated with 0, 2.5, 5 or 10 μmol/L LA, MA, PA or SA as described above to generate CM (n=6). This CM was used to treat preadipocytes for 24 hours. Aromatase mRNA and activity levels were determined. Treatment with CM derived from either saturated fatty acid-treated THP-1 cells or human blood monocyte-derived macrophages induced aromatase mRNA and activity in human preadipocytes. Neutralizing either TNF-α or IL-1β by incubating the CM from SA-treated cells with neutralizing antibodies to TNF-α, IL-1β or control IgG overnight at 4° C. attenuated CM-mediated induction of aromatase in preadipocytes.
Next, THP-1 cells were transfected as indicated with control siRNA or TNF-α siRNA, IL-1β siRNA or Cox-2 siRNA for 36 hours. Cells were then treated with vehicle (control) or 10 μmol/L SA as described above. The levels of TNFα, IL-1β and PGE2 were measured by enzyme immunoassay in the CM. Cox-2 protein abundance was determined by immunoblotting of whole cell lysates using β-actin was used as a loading control. Preadipocytes were treated with THP-1 cell-derived CM for 24 hours prior to measurements of aromatase mRNA and activity. […] Following treatment, the medium was removed and cells were washed. Subsequently, fresh medium was added for 24 hours to generate CM. PGE2 production was measured in CM. Preadipocytes were treated with THP-1 cell-derived CM for 24 hours prior to measurements of aromatase mRNA and activity. […]

[2] = tested on: NF-κB; test: NF-κB-luciferase reporter assay in THP-1 cells; format: cell-based, human; details: for NF-κB-luciferase activity in THP-1 cells: 10 μmol/L fatty acid, 24 hours
Protocol: NF-κB-luciferase (Panomics) and pSVβgal (Promega) were transfected into THP-1 cells using the Amaxa system. After 24 hours of incubation, the medium was replaced with basal medium. The activities of luciferase (BD Biosciences) and β-galactosidase were measured in cellular extracts. For siRNA transfections, THP-1 cells were plated at 60% confluence and transfected with non-targeting siRNA or siRNA targeting TNF-α, IL-1β, Cox-2 and p65 using Dharmafect 4 for 36 hours. Subsequently, the cells were treated with vehicle or saturated fatty acids.
To investigate the potential role of the transcription factor NF-κB in saturated fatty acid-mediated induction of TNF-α, IL-1β and Cox-2 in macrophages, transient transfection assays were performed in saturated fatty acid-treated THP-1 cells with an NF-κB-luciferase reporter construct and pSV-βgal constructs.
The effects of BAY11-7082, a pharmacological inhibitor of NF-κB, were evaluated. THP-1 cells were transiently transfected with NF-κB-luciferase and pSV-βgal constructs and cells were subsequently treated with vehicle, 10 μmol/L SA or SA plus 0, 5 or 10 μmol/L of BAY11-7082 (InvivoGen) for 12 hours. NF-κB luciferase activity was normalized to β-galactosidase activity. Additionally, THP-1 cells were treated with vehicle (control), 10 μmol/L SA or SA plus 10 μmol/L BAY11-7082 for 24 hours. Levels of TNF-α protein, IL-1β protein and PGE2 in the CM were determined by enzyme immunoassay. Preadipocytes were treated with THP-1 cell-derived CM for 24 hours prior to measurements of aromatase mRNA and activity.

[3] = tested on: THP-1 cells; test: Pro-inflammatory mediators (TNF-α, IL-1β, Cox-2, PGE2) in saturated fatty acid-treated THP-1 cells; format: cell-based, human; details: for induction of TNF-α in THP-1 cells: 0, 2.5, 5, 10 μmol/L saturated fatty acid, 24 hours, real-time PCR
Protocol: as §1
(§3) Lysates were prepared by treating cells with lysis buffer, sonicating for 20 seconds on ice and centrifuging at 10,000×g for 10 minutes to remove particulate material. The protein concentration of the supernatant was measured by the method of Lowry et al. (Lowry 1951). SDS-PAGE was done under reducing conditions on 10% polyacrylamide gels. The resolved proteins were transferred onto nitrocellulose sheets and incubated with primary antisera. Antibodies to phospho-p65, p65, histone H3, Cox-2 and β-actin were used (Santa Cruz Biotechnology). Secondary antibody to IgG conjugated to horseradish peroxidase was used. The blot was probed with the ECL Western blot detection system.
as §2
LC/MS/MS analyses were performed using a Tandem Quadrupole Mass Spectrometer (Agilent) equipped with an Agilent 1200 binary pump HPLC system using a modified version of the method of Yang 2006. PGs were chromatographically separated using a Gemini 3-μm C6-phenyl 4.6×100 mm analytical column (Phenomenex). The mobile phase consisted of 0.1% formic acid in water (mobile phase A) and 0.1% formic acid in acetonitrile (mobile phase B). The chromatographic baseline resolution for the PGs of interest was achieved using a linear gradient that went from 20% to 40% mobile phase B for 12 minutes and then from 40% to 70% for 8 minutes. This was then increased to 90% mobile phase B over the next 2 minutes and kept at this level for an additional 3 minutes. The flow rate was 0.8 mL/min with a column temperature of 40° C. The mass spectrometer was operated in negative electrospray ionization mode with capillary voltage of 2.9 kV, a cone gas flow rate of […] and a shear gas flow rate of 12 mL/minute at 350° C. PGs were detected and quantified using multiple reaction mode monitoring of the transitions m/z 351 to 271 for PGE2 and m/z 355 to 275 for PGE2-d4. The results are expressed as nanograms of PGE2 per mg of protein. For measurements of PGE2 in cell culture media, EIA kits were used (Cayman Chemicals).
TNF-α and IL-1β levels were quantified in cell culture media using EIA kits (R & D systems).
Experiments were carried out in vitro to determine if saturated fatty acids stimulated the production of pro-inflammatory molecules by macrophages leading, in turn, to elevated aromatase expression in preadipocytes.

[4] = tested on: p65; test: Immunoblotting of phospho-p65 and p65 in THP-1 cells; format: cell-based, human; details: 30 minutes; for phosphorylation of p65: THP-1 cells, 0, 2.5, 5 or 10 μmol/L fatty acid
Protocol: as §3
The abundance of phospho-p65 was determined by immunoblotting in cytosolic and nuclear preparations of cells treated with vehicle (control) or 10 μmol/L SA for 30 minutes. β-actin and histone H3 were used as cytosolic and nuclear markers, respectively.

[5] = tested on: NF-κB binding sites; test: Electrophoretic mobility shift assay of nuclear protein from THP-1 cells; format: cell-based, human; details: THP-1 cells, 0, 2.5, 5 or 10 μmol/L SA, 1 hour; EMSA
Protocol: Nuclear extracts were prepared from mouse mammary glands using an EMSA kit (Promega). For binding studies, oligonucleotides containing NF-κB sites (Active Motif) were used. The complementary oligonucleotides were annealed in 20 mmol/L Tris (pH 7.6), 50 mmol/L NaCl, 10 mmol/L MgCl2, and 1 mmol/L dithiothreitol. The annealed oligonucleotide was phosphorylated at the 5′ end with [γ-^32P]ATP and T4 polynucleotide kinase. The binding reaction was performed by incubating 5 μg of nuclear protein in 20 mmol/L HEPES (pH 7.9), 10% glycerol, 300 μg of bovine serum albumin, and 1 μg of poly(dI·dC) in a final volume of 10 μL for 10 minutes at 25° C. The labeled oligonucleotides were added to the reaction mixture and allowed to incubate for an additional 20 minutes at 25° C. The samples were electrophoresed on a 4% nondenaturing polyacrylamide gel. The gel was then dried and subjected to autoradiography at −80° C.
DNA-protein binding complexes to NF-κB binding sites were examined by electrophoretic mobility shift assays (EMSA). Nuclear protein was prepared from THP-1 cells treated with 0, 2.5, 5 or 10 μmol/L of SA for 1 hour. In another experiment, nuclear protein was prepared from THP-1 cells treated with vehicle or 10 μmol/L SA for 1 hour, and the nuclear protein was incubated with normal IgG or different concentrations of antibodies to p65. […]

[6] = 10 μmol/L SA plus 10 μmol/L BAY11-7082, 24 hours, enzyme immunoassay
[7] = CM from THP-1 cells treated with 0, 2.5, 5 or 10 μmol/L fatty acid
[8] = CM from human blood monocyte-derived macrophages treated with 0, 2.5, 5 or 10 μmol/L fatty acid

| ability of macrophage-derived CM to induce aromatase expression and activity ([1]; following NF-κB inhibition of THP-1 cells with BAY11-7082, preadipocytes treated with CM 24 hours) | aromatase mRNA and activity in human preadipocytes [1, 7] | aromatase mRNA and activity in human preadipocytes [1, 8] | SMILES | SA-mediated activation of NF-κB (NF-κB luciferase activity) ([2]; 10 μmol/L SA plus 0, 5 or 10 μmol/L BAY11-7082, 12 hours) | production of increased amounts of IL-1β in CM [3, 6] | production of increased amounts of PGE2 in CM [3, 6] | production of increased amounts of TNF-α in CM [3, 6] | induction of TNF-α in THP-1 cells [3] | phosphorylation of p65 [4] | NF-κB-luciferase activity in THP-1 cells [2] | translocation of p65 from cytosol to nucleus ([4]; THP-1 cells, 10 μmol/L SA) | binding of nuclear protein to a 32P-labeled NF-κB consensus sequence [5] |
| --- | --- | --- | --- | --- | --- | --- | --- | --- | --- | --- | --- | --- |
| suppressed |  |  | Cc1ccc(S(=O)(=O)/C=C/C#N)cc1 [BAY11-7082] | suppressed | suppressed | suppressed | suppressed |  |  |  |  |  |
|  | induced | induced | CCCCCCCCCCCC(=O)O [LA, lauric acid] |  |  |  |  | dose-dependent induction |  |  |  |  |
|  | induced | induced | CCCCCCCCCCCCCC(=O)O [MA, myristic acid] |  |  |  |  | dose-dependent induction |  |  |  |  |
|  | induced | induced | CCCCCCCCCCCCCCCC(=O)O [PA, palmitic acid] |  |  |  |  | dose-dependent induction | stimulated | induced |  |  |
|  | induced | induced | CCCCCCCCCCCCCCCCCC(=O)O [SA, stearic acid] |  |  |  |  | dose-dependent induction | stimulated | induced | stimulated | stimulated |
